We go through six compounds from patent US20250206761A1, “HALOINDOLE MACROCYCLIC COMPOUNDS FOR THE TREATMENT OF CANCER” (Hoffmann-La Roche Inc., priority 2022, published 2025).

For data set [1] the following is noted: ester bond, EDCI/HOBt/DIEA, DCM.
Data set [2] has as its system cryopreserved suspension hepatocytes from human. The data set can be described thus: Human hepatocyte stability assay. It counts as in vitro ADME. As to conditions: for Clearance Category: human hepatocytes; for CL_hep (Human): human hepatocytes 1×10^6 cells/mL, 37° C. As for the experimental part:
The hepatocyte stability assay measures the rate of disappearance of a compound from incubations with cryopreserved suspension hepatocytes from human. Positive controls, including Midazolam, Raloxifene and Dextromethorphan, are included in every experiment. Incubations consist of […] tested compound and suspension of human hepatocytes (1×10^6 cells/mL) in supplemented Williams' E Medium with 10% FBS and 0.5% Penicillin-streptomycin. The hepatocyte suspension was incubated with intermittent shaking 900 rpm at 37° C., in a 5% CO2 incubator. The reaction was stopped by adding methanol containing internal standard (2 μM Tolbutamide) at 2, 10, 20, 40, 60 and 120 minutes after compound addition, depletion of the parent compound was monitored by LC-MS/MS analysis.

The test system of data set [3] is NCI-H358 (ATCC-CRL5807) cells. In words: Cell viability assay, G12C (NCI-H358). As to conditions: Homo sapiens; KRAS cell viability, NCI-H358, 72 hrs, Cell Counting Kit-8. It counts as cell-based, human. The procedure, abridged: (§1)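 Cells seeded at 5,000/well (NCI-H358) or 2,000/well (AGS, SW620), treated next day at 0.5% final DMSO for 72 h. Viability read by CCK-8 (OD450 minus OD650) after 2 h; IC50 from 4-parameter sigmoidal fit.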

Data set [4] deals with AGS (ATCC-CRL-1739) cells. In words: Cell viability assay, G12D (AGS). It is filed as cell-based, human. The note with it: Homo sapiens, KRAS cell viability, 72 hrs, Cell Counting Kit-8. Summed up:
as §1

Another data set has as its system SW620 (ATCC-CCL-227). The data set can be described thus: Cell viability assay, G12V (SW620). As to conditions: Homo sapiens, SW-620; KRAS cell viability, SW620, 72 hrs, Cell Counting Kit-8. It is filed as cell-based, human. Summed up: as §1
Data set [5] deals with T1, KRAS G12C-BRAF complex (Homo sapiens (Human), UniProt P01116+P62937, G12C). The data set can be described thus: KRAS G12C-BRAF NanoBit assay. It counts as cell-based. As to conditions: HEK293 cells, 3 hours of incubation. How it is done:
This assay is to measure the ability of tested compounds in disruption of the KRAS G12C-BRAF complex at the cellular level, we established the NanoBit cellular assay in mammalian HEK293 (ATCC) cells.
HEK293 cells were grown and maintained using DMEM medium (Thermo Fisher Scientific) with 10% fetal bovine serum and 1% penicillin/streptomycin. Both KRAS G12C and BRAF RBD were cloned into the NanoBit vectors ([…] vectors system, Promega) with the orientations SnmBit-KRAS G12C and BRAF RBD-LgBit, respectively, and co-transfected into HEK293 cells. Cells were then selected with 100 μg/mL Hygromycin B (10687010, Thermo Fisher) and Blasticidin (5 μg/mL) for 4 weeks to get the stable cell pool.
On the day of the assay, 75 nL of compound solution was presented in a 384-well assay plate as a 16-point 3-fold dilution starting from a final concentration of 30 μM in DMSO. Then cells were seeded at 10,000 cells/25 μL/well in a 384-well plate. After 3 hours of incubation, 6 μL of volume of Nano-Glo® Live Cell Substrate (Promega) was added into each well. Monitor luminescence using ultra384 model in Envision at 20 minutes. Compounds that facilitate disruption of the KRAS G12C-BRAF RBD complex were identified as those eliciting a decrease of luminescence relative to DMSO control wells.

For data set [6], the target named is T1, KRAS G12C-BRAF complex. In words: KRAS-BRAF with CYPA (500 nM) interaction assay (TR-FRET), G12C. It counts as biochemical.
Data set [7] concerns the target KRAS G12D binding to BRAF (Homo sapiens (Human), UniProt P01116+P62937, G12D). In words: KRAS-BRAF with CYPA (500 nM) interaction assay (TR-FRET), G12D. It counts as biochemical.
Data set [8] deals with KRAS G12V binding to BRAF (Homo sapiens (Human), UniProt P01116+P62937, G12V). The data set can be described thus: KRAS-BRAF with CYPA (500 nM) interaction assay (TR-FRET), G12V. It is filed as biochemical. Summed up:
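A TR-FRET assay measured how compound, in the presence of CYPA, disrupts binding of GMPPNP-loaded 6His-KRAS G12V to BRAF. The buffer contained 25 mM HEPES PH=7.4, 0.002% Tween20, 0.1% BSA, 100 mM NaCl, 5 mM MgCl2 and 10 μM GMPPNP. Compounds ran as a 16-point 3-fold dilution series from 10 μM for 3 hours.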

Data set [9] relates to phosphorylation of ERK, KRAS G12C in NCJ-H358 cells. In words: pERK inhibition assay, KRAS G12C. It counts as cell-based, human. As to conditions: Homo sapiens, 4 hours. The procedure, abridged:
(§2)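 Read-out is OD450 from a TMB colorimetric cell ELISA using a phospho-ERK-specific antibody and HRP-linked secondary. Compounds were incubated with the cells for 4 hours at 0.5% DMSO before fixation and permeabilization. IC50 values come from 4-parameter concentration-response fitting.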

Data set [10] concerns phosphorylation of ERK, KRAS G12D in AGS cells. The data set can be described thus: pERK inhibition assay, KRAS G12D. It is filed as cell-based, human. The note with it: Homo sapiens, 4 hours. The procedure, abridged: as §2
Data set [11] concerns phosphorylation of ERK, KRAS G12V in SW620. The data set can be described thus: pERK inhibition assay, KRAS G12V. It is filed as cell-based, human. As to conditions: Homo sapiens, SW-620, SW620, 4 hours. Summed up:
as §2

Read-outs that look alike come from different tables or passages of the source.

T1 sequence (P01116-2 other isoform, or with tags, fused parts or gaps G12C): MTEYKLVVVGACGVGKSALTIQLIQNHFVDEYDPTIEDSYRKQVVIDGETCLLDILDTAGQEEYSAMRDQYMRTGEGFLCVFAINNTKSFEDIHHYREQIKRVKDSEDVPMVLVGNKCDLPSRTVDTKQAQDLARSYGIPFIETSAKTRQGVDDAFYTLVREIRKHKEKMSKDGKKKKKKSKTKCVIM
T1 sequence (P62937 whole entry): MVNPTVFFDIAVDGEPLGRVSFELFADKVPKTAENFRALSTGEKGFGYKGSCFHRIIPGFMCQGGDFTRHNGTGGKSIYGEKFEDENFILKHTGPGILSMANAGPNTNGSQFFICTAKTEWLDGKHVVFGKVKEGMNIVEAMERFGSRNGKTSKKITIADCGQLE
Chain of KRAS G12V binding to BRAF (P01116-2 other isoform, or with tags, fused parts or gaps G12V): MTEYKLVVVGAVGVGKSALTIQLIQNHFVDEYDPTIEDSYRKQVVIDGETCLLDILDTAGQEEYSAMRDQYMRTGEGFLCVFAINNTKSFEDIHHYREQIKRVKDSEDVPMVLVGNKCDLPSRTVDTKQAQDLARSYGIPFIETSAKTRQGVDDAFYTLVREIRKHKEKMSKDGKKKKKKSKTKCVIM
Chain of KRAS G12V binding to BRAF (P62937 whole entry): as the sequence (P62937 whole entry) above
Chain of KRAS G12D binding to BRAF (P01116-2 other isoform, or with tags, fused parts or gaps G12D): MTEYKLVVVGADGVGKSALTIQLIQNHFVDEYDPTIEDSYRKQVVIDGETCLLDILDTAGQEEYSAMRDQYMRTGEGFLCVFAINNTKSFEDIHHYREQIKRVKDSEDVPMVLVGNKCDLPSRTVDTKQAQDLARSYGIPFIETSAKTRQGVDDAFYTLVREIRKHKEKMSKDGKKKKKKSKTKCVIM
Chain of KRAS G12D binding to BRAF (P62937 whole entry): as the sequence (P62937 whole entry) above

`CCn1c(-c2cc(N3CCOCC3)cnc2[C@H](C)OC)c2c3cc(c(F)cc31)-c1csc(n1)C[C@H](NC(=O)OC(C)(C)C)C(=O)N1CCC[C@H](N1)C(=O)OCC(C)(C)C2` yielded a ring closure, yield of all isomers in [1] (from CCn1c(-c2cc(N3CCOCC3)cnc2[C@H](C)OC)c(CC(C)(C)CO)c2cc(-c3csc(C[C@H](NC(=O)OC(C)(C)C)C(=O)N4CCC[C@@H](C(=O)O)N4)n3)c(F)cc21, 11.72 mM, 20.0 °C, 12.0 h) of 49.1%.

Compound `CO[C@@H](C)c1ncc(N2CCN(C(=O)OCc3ccccc3)CC2)cc1-c1c2c3cc(c(F)cc3n1CC(F)(F)F)-c1cc(cc(O[Si](C(C)C)(C(C)C)C(C)C)c1)C[C@H](NC(=O)OC(C)(C)C)C(=O)N1CCC[C@H](N1)C(=O)OCC(C)(C)C2` returned a ring closure, yield of all isomers in data set [1] (from CO[C@@H](C)c1ncc(N2CCN(C(=O)OCc3ccccc3)CC2)cc1-c1c(CC(C)(C)CO)c2cc(-c3cc(C[C@H](NC(=O)OC(C)(C)C)C(=O)N4CCC[C@@H](C(=O)O)N4)cc(O[Si](C(C)C)(C(C)C)C(C)C)c3)c(F)cc2n1CC(F)(F)F, 8.33 mM, 15.0 °C, 12.0 h) of 74.2%.

In the case of `CO[C@@H](C)c1ncc(N2CCN(C(=O)OCc3ccccc3)CC2)cc1-c1c2c3cc(c(F)cc3n1CC(F)(F)F)-c1csc(n1)C[C@H](NC(=O)OC(C)(C)C)C(=O)N1CCC[C@H](N1)C(=O)OCC(C)(C)C2`, the ring closure, yield of all isomers in data set [1] (from CO[C@@H](C)c1ncc(N2CCN(C(=O)OCc3ccccc3)CC2)cc1-c1c(CC(C)(C)CO)c2cc(-c3csc(C[C@H](NC(=O)OC(C)(C)C)C(=O)N4CCC[C@@H](C(=O)O)N4)n3)c(F)cc2n1CC(F)(F)F, 9.63 mM, 15.0 °C, 12.0 h) worked out at 73.4%.

Consider `CO[C@@H](C)c1ncc(N2CCOCC2)cc1-c1c2c3cc(c(F)cc3n1CC(F)(F)F)-c1csc(n1)C[C@H](NC(=O)OC(C)(C)C)C(=O)N1CCC[C@H](N1)C(=O)OCC(C)(C)C2`, for which the ring closure, yield of all isomers in [1] (from CO[C@@H](C)c1ncc(N2CCOCC2)cc1-c1c(CC(C)(C)CO)c2cc(-c3csc(C[C@H](NC(=O)OC(C)(C)C)C(=O)N4CCC[C@@H](C(=O)O)N4)n3)c(F)cc2n1CC(F)(F)F, 12.0 mM, 20.0 °C, 15.0 h) was found to be 81.3%.

As to `CO[C@@H](C)c1ncc(N2CCN(C)CC2)cc1-c1c2c3cc(c(F)cc3n1CC(F)(F)F)-c1csc(n1)C[C@H](NC(=O)[C@H](C(C)C)N1CCC3(CCN(C(=O)[C@H](F)Cl)CC3)C1=O)C(=O)N1CCC[C@H](N1)C(=O)OCC(C)(C)C2` (atropisomer, axis not shown; (M)) [Example 15, (2S)-2-[8-[(2R)-2-chloro-2-fluoro-acetyl]-1-oxo-2,8-diazaspiro[4.5]decan-2-yl]-N-[(7S,13S)-24-fluoro-(20M)-20-[2-[(1S)-1-methoxyethyl]-5-(4-methylpiperazin-1-yl)-3-pyridyl]-17,17-dimethyl-8,14-dioxo-21-(2,2,2-trifluoroethyl)-15-oxa-4-thia-9,21,27,28-tetrazapentacyclo[17.5.2.1^2,5.1^9,13.0^22,26]octacosa-1(25),2,5(28),19,22(26),23-hexaen-7-yl]-3-methyl-butanamide], the “Clearance Category” value in data set [2] is on record as “medium (16.24>CL_hep (mL/min/kg)>6.96 is medium clearance)”. In addition, the “CL_hep (Human)” value in data set [2] is given as 10.9 mL/min/kg. Besides, the IC50 is below 1 nM in data set [3], 3240 nM in data set [4], 771 nM with SW620 (ATCC-CCL-227) and 32 nM on KRAS G12C-BRAF complex [5].

For `CC(C)[C@@H](C(=O)N[C@H]1Cc2cc(O)cc(c2)-c2ccc3c(C(C)(C)C#N)cn(c3c2)CC(C)(C)COC(=O)[C@@H]2CCCN(N2)C1=O)N1CCC2(CN(C(=O)[C@H](F)Cl)C2)C1=O` [RM44-A, reference compound], the “Clearance Category” value in data set [2] is “low (CL_hep (mL/min/kg)<6.96 is low clearance)”. For the same compound, in data set [2], the “CL_hep (Human)” value was below 2.4 mL/min/kg. Further, the IC50 against KRAS G12C-BRAF complex [5] is 1150 nM; against KRAS G12C-BRAF complex [6], 779 nM; in data set [7], above 10000 nM; in [8], above 10000 nM; in [9], above 10000 nM; in data set [10], above 10000 nM. The same compound displayed an IC50 in [11] above 10000 nM.
